From patent US20190201409A1, “COMBINATION THERAPY” (MEI Pharma, Inc., priority 2016, published 2019)

What was measured:
Format in all cases: cell-based
OCI-Ly19 cells = assay: ATPLite growth inhibition assay, single agent and combination (Loewe synergy); conditions: single agent
Protocol: (§1) The activity of compound I was examined in combination with PCI-32765 (ibrutinib), ABT-199 (venetoclax) and EPZ-6438 (Tazemetostat) across a panel of 8 DLBCL cell lines indicated below (7 GCB subtype cell lines and 1 ABC subtype cell line).
(§2) The effect of test compounds and combinations on growth inhibition as a measure of cell viability was determined in an ATPLite assay. The endpoint readout of the assay was based upon quantitation of ATP as an indicator of viable cells.
(§3) Cells were thawed from a liquid nitrogen preserved state. Once cells were expanded and divided at their expected doubling times, screening begins. Cells were seeded in growth media in black 384-well tissue culture treated plates at 500 cells per well (except where noted in Analyzer). Cells were equilibrated in assay plates via centrifugation and placed in incubators attached to the Dosing Modules at 37° C. for 24 hours before treatment. […] These Tzero (T0) plates were read using ultra-sensitive luminescence on Envision Plate Readers. Treated assay plates were incubated with compound for 72 hours. All data points were collected via automated processes; quality controlled; and analyzed using Horizon Discovery proprietary software. Assay plates were accepted if they pass the following quality control standards: relative luciferase values were consistent throughout the entire experiment, Z-factor scores were greater than 0.6, untreated/vehicle controls behaved consistently on the plate.
(§4) Growth Inhibition (GI) was used as a measure of cell viability. The cell viability of vehicle was measured at the time of dosing (T0) and after seventy two hours (T72). A GI reading of 0% represented no growth inhibition—cells treated with compound and T72 or T120 vehicle signals were matched. A GI 100% represented complete growth inhibition—cells treated by compound and To vehicle signals were matched. […] A GI 200% represents complete death of all cells in the culture well. Compounds reaching an activity plateau of GI 200% were considered cytotoxic. GI was calculated by applying the following test and equation: […]
(§5) where T is the signal measure for a test article, V is the vehicle-treated control measure, and V0 is the vehicle control measure at time zero. This formula is derived from the Growth Inhibition calculation used in the National Cancer Institute's[sic] NCl[sic]−60 high throughput screen.
(§6) Loewe Additivity model was used for measuring the effects of drug combinations. The Loewe additivity model is dose-based and applies only to the activity levels achieved by the single agents. Loewe Volume was used to assess the overall magnitude of the combination interaction in excess of the Loewe additivity model. Loewe Volume is particularly useful when distinguishing synergistic increases in a phenotypic activity (positive Loewe Volume) versus synergistic antagonisms (negative Loewe Volume). When antagonisms are observed, the Loewe Volume should be assessed to examine if there is any correlation between antagonism and a particular drug target-activity or cellular genotype. This model defines additivity as a non-synergistic combination interaction where the combination dose matrix surface should be indistinguishable from either drug crossed with itself. The calculation for additivity is:
(§7) To measure combination effects in excess of Loewe additivity, a scalar measure to characterize the strength of synergistic interaction was devised and termed the Synergy Score. The Synergy Score was calculated as:
(§8) Synergy Score=log fX log fYΣ max(0,Idata)(Idata−ILoewe)
(§9) The fractional inhibition for each component agent and combination point in the matrix was calculated relative to the median of all vehicle-treated control wells. The Synergy Score equation integrates the experimentally-observed activity volume at each point in the matrix in excess of a model surface numerically derived from the activity of the component agents using the Loewe model for additivity. […]

NU-DHL-1 cells = assay: as above; conditions: single agent
Protocol: as §1, §2, §3, §4, §5, §6, §7, §8, §9

DOHH-2 cells = assay: as above; conditions: single agent
Protocol: as §1, §2, §3, §4, §5, §6, §7, §8, §9

SU-DHL-10 cells = assay: as above; conditions: single agent; printed SU-DIAL-10
Protocol: as §1, §2, §3, §4, §5, §6, §7, §8, §9

OCI-Ly3 cells = assay: as above; conditions: single agent
Protocol: as §1, §2, §3, §4, §5, §6, §7, §8, §9

Pfeiffer cells = assay: as above; conditions: single agent
Protocol: as §1, §2, §3, §4, §5, §6, §7, §8, §9

[1] = test system: panel of 8 DLBCL cell lines; assay: ATPLite growth inhibition assay across the cell line panel; conditions: single agent, FIG. 9
Protocol: as §1, §2
Cells were thawed from a liquid nitrogen preserved state. Once cells were expanded and divided at their expected doubling times, screening begins. Cells were seeded in growth media in black 384-well tissue culture treated plates at 500 cells per well (except where noted in Analyzer). […] These Tzero (T0) plates were read using ultra-sensitive luminescence on Envision Plate Readers. […] All data points were collected via automated processes; quality controlled; and analyzed using Horizon Discovery proprietary software. […]
Growth Inhibition (GI) was used as a measure of cell viability. The cell viability of vehicle was measured at the time of dosing (T0) and after seventy two hours (T72). A GI reading of 0% represented no growth inhibition—cells treated with compound and T72 or T120 vehicle signals were matched. […] GI was calculated by applying the following test and equation: […]

## CN1CCC(c2ccccc2CC(C)(C)Nc2nc(N3CCOCC3)nc(-n3c(C(F)F)nc4ccccc43)n2)CC1 [Compound I, 4-(2-(difluoromethyl)-1H-benzo[d]imidazol-1-yl)-N-(2-methyl-1-(2-(1-methylpiperidin-4-yl)phenyl)propan-2-yl)-6-morpholino-1,3,5-triazin-2-amine]
OCI-Ly19 cells
  kind of growth inhibition effect (FIG. 10): cytotoxic effects
NU-DHL-1 cells
  kind of growth inhibition effect (FIG. 10): sub-cytostatic effects
DOHH-2 cells
  kind of growth inhibition effect (FIG. 10): cytotoxic effects
SU-DHL-10 cells
  kind of growth inhibition effect (FIG. 10): sub-cytostatic effects
OCI-Ly3 cells
  kind of growth inhibition effect (FIG. 10): cytotoxic effects
Pfeiffer cells
  kind of growth inhibition effect (FIG. 10): sub-cytostatic effects
[1]; all cell lines
  growth inhibition levels: > 50%
[1]; median across cell line panel
  GI50: 1.73 µM
